Among the data in ChEMBL document CHEMBL1828521, “New azole antifungal agents with novel modes of action: synthesis and biological studies of new tridentate ligands based on pyrazole and triazole” (2011) are Activity values, retold here.

For test [1], the system named is Saccharomyces cerevisiae. The experiment in a line: Antifungal activity against Saccharomyces cerevisiae BY4741 assessed as reduction in cell growth at 1 mM. In kind it is functional, organism-based.
Test [2] deals with Saccharomyces cerevisiae. In words: Antifungal activity against PKC1-deficient Saccharomyces cerevisiae BY4741 by Haploinsufficiency-profiling assay. The format is functional, organism-based.
For test [3], the system named is Saccharomyces cerevisiae. In words: Induction of cell cycle arrest at G1-phase in Saccharomyces cerevisiae BY4741 assessed as accumulation of 1C DNA content at 1 mM after 180 mins by flow cytometric analysis. The format is functional, organism-based. On the technique in general: In flow cytometry, cells or beads pass a laser one at a time.
For test [4], the system named is Saccharomyces cerevisiae. In words: Antifungal activity against ski2-deficient Saccharomyces cerevisiae BY4741 at 0.85 to 1.14 mM after 3 days by serial dilution method. In kind it is functional, organism-based.
The test system of test [5] is Saccharomyces cerevisiae. The experiment in a line: Antifungal activity against xrs2-deficient Saccharomyces cerevisiae BY4741 at 0.85 to 1.14 mM after 3 days by serial dilution method. The format is functional, organism-based.
Test [6] relates to Saccharomyces cerevisiae. In words: Antifungal activity against top3-deficient Saccharomyces cerevisiae BY4741 at 0.85 to 1.14 mM after 3 days by serial dilution method. In kind it is functional, organism-based.
Test [7] relates to Saccharomyces cerevisiae. The experiment in a line: Antifungal activity against wild-type Saccharomyces cerevisiae BY4741 at 1.14 mM after 3 days by serial dilution method. In kind it is functional, organism-based.
The subject of test [8] is Saccharomyces cerevisiae. The experiment in a line: Antifungal activity against Saccharomyces cerevisiae BY4741 expressing Rad52-GFP assessed as appearance of Rad52 foci by epifluorescence microscopy. In kind it is functional, organism-based.
For test [9], the system named is Saccharomyces cerevisiae. The experiment in a line: Antifungal activity against Saccharomyces cerevisiae BY4741 expressing Rad52-GFP assessed as increase in appearance of Rad52 foci in S-phase by epifluorescence microscopy. The format is functional, organism-based.
Test [10] concerns Saccharomyces cerevisiae. The experiment in a line: Antifungal activity against Saccharomyces cerevisiae BY4741 assessed as inhibition of replication at 1 mM. In kind it is functional, organism-based.
Test [11] deals with Saccharomyces cerevisiae. The experiment in a line: Antifungal activity against Saccharomyces cerevisiae BY4741 expressing Rad52-GFP assessed as increase in appearance of Rad52 foci in G2/M phase by epifluorescence microscopy. The format is functional, organism-based.
For test [12], the system named is Saccharomyces cerevisiae. The experiment in a line: Induction of cell cycle arrest at G1-phase in Saccharomyces cerevisiae BY4741 at 1 mM after 180 mins by flow cytometric analysis. The format is functional, organism-based.
For test [13], the system named is Saccharomyces cerevisiae. The experiment in a line: Antifungal activity against Saccharomyces cerevisiae BY4741 expressing Rad52-GFP assessed as increase in appearance of Rad52 foci in G1 phase by epifluorescence microscopy. In kind it is functional, organism-based.
Test [14] relates to Saccharomyces cerevisiae. In words: Cell cycle arrest in Saccharomyces cerevisiae BY4741 assessed as accumulation of cells with […] DNA content at G1 phase at 290 uM for 8 hrs by flow cytometric analysis. In kind it is functional, organism-based.
Test [15] concerns Saccharomyces cerevisiae. The experiment in a line: Antifungal activity against wild-type Saccharomyces cerevisiae BY4741 at 1.4 mM by serial dilution method. The format is functional, organism-based.
The subject of test [16] is Saccharomyces cerevisiae. In words: Antifungal activity against top3-deficient Saccharomyces cerevisiae BY4741 at 1 to 1.4 mM after 3 days by serial dilution method. The format is functional, organism-based.
The test system of test [17] is Saccharomyces cerevisiae. In words: Cell cycle arrest at G1-phase in Saccharomyces cerevisiae BY4741 assessed as accumulation of […] DNA content at 290 uM after 180 mins by flow cytometric analysis. The format is functional, organism-based.
Test [18] has as its system Saccharomyces cerevisiae. In words: Antifungal activity against xrs2-deficient Saccharomyces cerevisiae BY4741 at 1 to 1.4 mM after 3 days by serial dilution method. The format is functional, organism-based.
Test [19] has as its system Saccharomyces cerevisiae. In words: Antifungal activity against Saccharomyces cerevisiae BY4741 assessed as large budded cells at 1 mM (reference value: 39.4%). In kind it is functional.
Test [20] deals with Saccharomyces cerevisiae. In words: Antifungal activity against ski2-deficient Saccharomyces cerevisiae BY4741 at 1 to 1.4 mM after 3 days by serial dilution method. In kind it is functional, organism-based.
Test [21] deals with Saccharomyces cerevisiae. In words: Antifungal activity against Saccharomyces cerevisiae BY4741 assessed as increase in unbudded cells at 1 mM (reference value: 38.5%). In kind it is functional.
In test [22] the test system is Saccharomyces cerevisiae. In words: Antifungal activity against Saccharomyces cerevisiae BY4741 assessed as small budded cells at 1 mM (reference value: 22%). In kind it is functional.

Activity calls are given as the source filed them. No cut-off for these calls is given here.

For `CCN(CC)CCCN(Cn1cncn1)Cn1cncn1`, the result in the test with Saccharomyces cerevisiae [1], with Saccharomyces cerevisiae [2], with Saccharomyces cerevisiae [3], with Saccharomyces cerevisiae [4], with Saccharomyces cerevisiae [5] and in the test with Saccharomyces cerevisiae [6] was Active. Further, the result in the test on Saccharomyces cerevisiae [8], in the test with Saccharomyces cerevisiae [9], in the test with Saccharomyces cerevisiae [10], in the test with Saccharomyces cerevisiae [11], in the test with Saccharomyces cerevisiae [12] and in the test on Saccharomyces cerevisiae [13] was Active. For the same compound, the result in the test on Saccharomyces cerevisiae [7] was inactive.
Take `CCN(CC)CCCN(Cn1nc(C)cc1C)Cn1nc(C)cc1C`: the result in the test with Saccharomyces cerevisiae [1], in the test on Saccharomyces cerevisiae [14], in the test on Saccharomyces cerevisiae [16], with Saccharomyces cerevisiae [17], with Saccharomyces cerevisiae [18] and in the test with Saccharomyces cerevisiae [8] was Active. Also, the outcome with Saccharomyces cerevisiae [9], in the test on Saccharomyces cerevisiae [20], in the test on Saccharomyces cerevisiae [11] and with Saccharomyces cerevisiae [13] was Active. For the same compound, the result in the test with Saccharomyces cerevisiae [15] was inactive. Also, the Activity is 38.7% with Saccharomyces cerevisiae [19], 51.5% with Saccharomyces cerevisiae [21] and 9.7% in the test on Saccharomyces cerevisiae [22].
For the compound `Cc1cc(C)n(CO)n1`, the result with Saccharomyces cerevisiae [1] was Active.
Turning to `Cc1cc(C)[nH]n1`, the outcome in the test with Saccharomyces cerevisiae [1] was inactive.
